The test system of data set [1] is D6D Promoter (human delta-6-desaturase control region, pRh4002.1). Put plainly: CAT reporter assay, basal activity of D6D promoter in ZR-75-1 cell line. In kind it is cell-based. The conditions noted are these: ZR-75-1 cells transfected with pRh4002.1 (D6D) plus agent; CAT activity normalized to pCat3-Control = 100; pRh4002.1 alone 75.91. (In a reporter assay the amount or activity of a reporter protein is the signal.)

The target in data set [2] is T1, rat delta-5-desaturase (Rattus norvegicus, UniProt Q920R3, Q29H/R30G).
T1 construct: A rD5D cDNA fragment spanning nucleotides +1 to +1344 was cloned by RT-PCR using total RNA extracted from rat liver tissue; expressed in transfected cells; host or cells: Saccharomyces cerevisiae INVSc1 transformed with pYr5014.1 (pYES2 backbone), galactose-induced; whole cells or spheroplasts
T1 sequence (Q920R3 1-447 Q29H/R30G): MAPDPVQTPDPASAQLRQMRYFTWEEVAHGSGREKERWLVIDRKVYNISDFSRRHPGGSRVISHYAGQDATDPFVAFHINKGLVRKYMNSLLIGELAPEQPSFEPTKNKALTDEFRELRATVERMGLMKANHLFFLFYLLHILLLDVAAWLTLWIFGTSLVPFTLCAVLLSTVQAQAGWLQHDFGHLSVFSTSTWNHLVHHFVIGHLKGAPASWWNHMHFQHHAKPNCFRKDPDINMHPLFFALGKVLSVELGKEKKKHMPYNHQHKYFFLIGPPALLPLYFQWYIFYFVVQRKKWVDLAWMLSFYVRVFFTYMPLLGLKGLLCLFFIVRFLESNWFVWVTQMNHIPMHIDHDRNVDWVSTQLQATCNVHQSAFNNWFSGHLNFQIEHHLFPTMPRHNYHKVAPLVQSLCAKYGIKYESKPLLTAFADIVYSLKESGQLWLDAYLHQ
Description: Inhibition of rat delta-5-desaturase in spheroplasts of Saccharomyces cerevisiae transformed with pYr5014.1. In kind it is cell-based. The method, then: (§1) After 16 h incubation, spheroplasts were prepared as previously described in Example 8.

The test system of data set [3] is spheroplasts of Saccharomyces cerevisiae. Put plainly: Cell density (O.D.600) and substrate radioactivity recovered in spheroplasts incubated with inhibitor. From the text: Total lipids were extracted and analyzed as described in Example 6.
A further data set relates to fatty acid desaturases. To be noted: Kawashima et al., 1996; cited from earlier work.
For data set [4], the target named is T2, human delta-5-desaturase (Homo sapiens, UniProt O60427).
T2 construct: expressed in transfected cells; host or cells: Saccharomyces cerevisiae INVSc1 transformed with pTh5009.1 (pYES2/CT backbone), galactose-induced; whole cells or spheroplasts
T2 sequence (O60427 with tags, fused parts or gaps): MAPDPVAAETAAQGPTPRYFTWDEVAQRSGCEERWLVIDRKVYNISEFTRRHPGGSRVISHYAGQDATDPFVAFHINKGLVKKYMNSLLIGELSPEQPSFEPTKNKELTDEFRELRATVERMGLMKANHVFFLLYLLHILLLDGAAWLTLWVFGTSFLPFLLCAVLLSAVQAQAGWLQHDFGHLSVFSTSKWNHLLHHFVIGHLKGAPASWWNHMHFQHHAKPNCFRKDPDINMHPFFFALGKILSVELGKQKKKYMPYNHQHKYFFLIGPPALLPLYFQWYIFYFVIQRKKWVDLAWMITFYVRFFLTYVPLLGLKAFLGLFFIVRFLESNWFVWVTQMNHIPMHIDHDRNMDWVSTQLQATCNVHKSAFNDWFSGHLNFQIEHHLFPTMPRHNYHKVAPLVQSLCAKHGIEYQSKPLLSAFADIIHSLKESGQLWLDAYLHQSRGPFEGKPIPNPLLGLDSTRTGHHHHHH
Put plainly: Inhibition of human delta-5-desaturase in whole cells of Saccharomyces cerevisiae transformed with pTh5009.1. In kind it is cell-based.
Description: (§2) Incubation of Whole Yeast: Saccharomyces cerevisiae transformed with either pYr5014.1 or pTh5009.1 were incubated in a 125 ml Erlenmeyer flask containing 9 ml of SC-U medium with 1% tergitol (O.D.600 0.4, approximately 3.2×10^6 cells/ml) and 200 μl of n-propyl gallate in ethanol (final concentration in the culture ranged between 1.7-14.0 mM). After I h incubation in an orbital incubator at 270 rpm and 30° C., 1 μCi of potassium salt of [1-^14C]-dihomogammalinolenic acid (dissolved in SC-U medium and 1% tergitol) was added to the cell suspension to a final concentration of 2 μM. After 5 h incubation with the inhibitor, cells reached the log phase and the transgene expression was induced with the addition of 1 ml of galactose to a final concentration of 2%. Yeast were further incubated for 19 h (O.D.600 range: 5-10) until they were harvested by centrifugation at 5000×g for 10 minutes at 4° C.
(§3) Calculations: The delta-5-desaturase activity was determined by measuring the conversion of radiolabelled dihomogammalinolenic acid to arachidonic acid (20:3n-6 to 20:4n-6). The percent inhibition was calculated as described elsewhere (Kawashima et al., 1996, Biosci. Biotech. Biochem., 60:1672-1676): % Inhibition=100(activity without the inhibitor−activity with the inhibitor)/activity without the inhibitor

Data set [5] addresses T1, rat delta-5-desaturase. Description: Inhibition of rat delta-5-desaturase in whole cells of Saccharomyces cerevisiae transformed with pYr5014.1. Format: cell-based.
Description: as §2, §3
A further data set has as its target T3, delta-5-desaturase (Rattus norvegicus, UniProt Q920R3).
T3 construct: from tissue; host or cells: liver microsomes of Wistar rats
Put plainly: Inhibition of delta-5-desaturase activity in rat liver microsomes. In kind it is biochemical. The method, then: Preparation rat liver microsomes: Wistar rats under light halothane (15% in mineral oil) anesthesia were sacrificed by exsanguination during periods of high enzyme activity. Livers are immediately rinsed with cold 0.9% NaCl solution, weighed and minced with scissors. All procedures are performed at 4° C. unless specified otherwise. Livers are homogenized in a solution (1:3 w/v) containing 0.25 M sucrose, 62 mM. potassium phosphate buffer (pH 7.0), 0.15 M KCl, 1.5 mM N-acetylcysteine, 5 mM MgCl2, and 0.1 mM EDTA using 4 strokes of a Potter-Elvehjem tissue homogenizer. The homogenate is centrifuged at 10,400×g for 20 min to eliminate mitochondria and cellular debris. The supernatant is filtered through a 3-layer cheesecloth and centrifuged at 105,000×g for 60 min. The microsomal pellet is gently resuspended in the same homogenization solution with a small glass/teflon homogenizer and stored at −70° C. The absence of mitochondrial contamination is enzymatically assessed. The protein concentration is measured using bovine serum albumin as the standard.
Incubation of rat liver microsomes with delta-5-desaturase modulators: Reactions are started by adding 2 mg of microsomal protein to pre-incubated tubes containing 0.20 μCi of the substrate fatty acid (DLL) at a final concentration of 33.3 μM in 1.5 ml of homogenization solution, containing NaF (42 mM), niacinamide (0.33 mM), ATP (1.57 mM), NADH (1.0 mM), coenzyme A (0.09 mM) and a range of concentrations of the enzyme modulators. N-propyl gallate was added to the incubation medium to a final concentration of 0.02-0.32 mM. The tubes are vortexed vigorously and after 15 min incubation in a shaking water bath (37° C.), the reactions are stopped and fatty acids are analyzed as described in Example 6. Alternatively, fatty acid methyl esters are analyzed by capillary column gas chromatography (GC).
In general terms: Liver microsomes are vesicles of endoplasmic reticulum, rich in cytochrome P450 enzymes.

In data set [6] the test system is whole cells of Saccharomyces cerevisiae. Description: Cell density (O.D.600) and substrate radioactivity recovered in whole yeast incubated with inhibitor. Format: cell-based.
Description: as §2
Data set [7] concerns the target T2, human delta-5-desaturase. Description: Inhibition of human delta-5-desaturase in spheroplasts of Saccharomyces cerevisiae transformed with pTh5009.1. Format: cell-based. The method, then:
as §1

Setting [8] is: n-propyl gallate 0.25 mM, 20:3n-6 to 20:4n-6.

Molecules are shown by their SMILES.

T3 sequence (Q920R3 whole entry): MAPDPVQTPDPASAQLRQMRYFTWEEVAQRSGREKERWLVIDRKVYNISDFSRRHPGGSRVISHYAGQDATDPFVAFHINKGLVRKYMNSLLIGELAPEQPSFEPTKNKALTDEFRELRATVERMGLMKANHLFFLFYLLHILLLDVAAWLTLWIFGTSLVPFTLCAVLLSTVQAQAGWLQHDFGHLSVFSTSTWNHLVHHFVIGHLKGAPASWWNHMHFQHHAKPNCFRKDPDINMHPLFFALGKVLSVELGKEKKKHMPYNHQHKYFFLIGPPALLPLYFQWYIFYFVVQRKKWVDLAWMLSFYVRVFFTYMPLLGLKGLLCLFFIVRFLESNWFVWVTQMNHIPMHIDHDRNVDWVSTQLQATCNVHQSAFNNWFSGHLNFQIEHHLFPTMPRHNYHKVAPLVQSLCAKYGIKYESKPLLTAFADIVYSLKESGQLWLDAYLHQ

On to `CC/C=C\C/C=C\C/C=C\C/C=C\C/C=C\C/C=C\CCC(=O)O` [DHA, docosahexaenoic acid], for which, in data set [1], the “Percent Activity Compared to Controls” value is 19.82 ± 1.41%.
As to `CCCOC(=O)c1cc(O)c(O)c(O)c1` [n-propyl gallate, 3,4,5-Trihydoxybenzoic acid propyl ester], the % inhibition (commonly the change of the read-out against control, counted positive when it falls) was 4.3% on rat delta-5-desaturase [2] (setting [8]); 7.0% at rat delta-5-desaturase [2] (n-propyl gallate 1.00 mM); 20.5% at rat delta-5-desaturase [2] (n-propyl gallate 2.00 mM); 50.4% at rat delta-5-desaturase [2] (n-propyl gallate 4.00 mM); 81.9% on rat delta-5-desaturase [2] (n-propyl gallate 8.00 mM); 25.0% at human delta-5-desaturase [4] (n-propyl gallate 1.7 mM, gene induced after addition of inhibitor). Moreover, the “% inhibition” value is reported as 63.3% on human delta-5-desaturase [4] (n-propyl gallate 3.5 mM); 100.0% on human delta-5-desaturase [4] (n-propyl gallate 7.0 mM); 38.9% at rat delta-5-desaturase [5] (n-propyl gallate 7.0 mM, gene induced after addition of inhibitor); 68.5% at rat delta-5-desaturase [5] (n-propyl gallate 14.0 mM); 14.6% on human delta-5-desaturase [7] (setting [8]); 17.6% at human delta-5-desaturase [7] (n-propyl gallate 0.50 mM). Also, the “% inhibition” value on human delta-5-desaturase [7] (n-propyl gallate 1.00 mM) was 24.0%; on human delta-5-desaturase [7] (n-propyl gallate 2.00 mM) it was 41.0%; on human delta-5-desaturase [7] (n-propyl gallate 4.00 mM), 100.0%; on human delta-5-desaturase [7] (n-propyl gallate 8.00 mM), 100.0%. The O.D.600 in data set [3] (n-propyl gallate 0.25 mM, pTh5009.1, without inhibitor 2.6) came to 2.4; in data set [3] (n-propyl gallate 0.25 mM, pYr5014.1, without inhibitor 3.2) it was 2.8; in [3] (n-propyl gallate 0.50 mM, pTh5009.1), 2.5; in data set [3] (n-propyl gallate 1.00 mM, pTh5009.1), 2.5; in data set [3] (n-propyl gallate 1.00 mM, pYr5014.1), 2.9; in [3] (n-propyl gallate 2.00 mM, pTh5009.1), 2.2. In addition, the O.D.600 is 2.7 in data set [3] (n-propyl gallate 2.00 mM, pYr5014.1); 2.4 in data set [3] (n-propyl gallate 4.00 mM, pTh5009.1); 2.9 in data set [3] (n-propyl gallate 4.00 mM, pYr5014.1); 1.2 in data set [3] (n-propyl gallate 8.00 mM, pTh5009.1); 2.8 in data set [3] (n-propyl gallate 8.00 mM, pYr5014.1); 9.0 in data set [6] (n-propyl gallate 1.7 mM, pTh5009.1, without inhibitor 10.9). Also, the O.D.600 in data set [6] (n-propyl gallate 3.5 mM, pTh5009.1) is recorded as 9.9; in data set [6] (n-propyl gallate 7.0 mM, pTh5009.1), 10.5; in data set [6] (n-propyl gallate 7.0 mM, pYr5014.1, without inhibitor 6.7), 6.5; in data set [6] (n-propyl gallate 14.0 mM, pYr5014.1), 5.4. Besides, in data set [3] (n-propyl gallate between 0.7-4.0 mM), the “cytotoxicity (consistent O.D.600 readings)” value is listed as “not cytotoxic”. The “type of inhibition of fatty acid desaturases” value in the data set on fatty acid desaturases is given as “noncompetitive inhibitor”. Also, the “concentration of the inhibitor at which a plateau of inhibition was reached” value at delta-5-desaturase was 0.08 to 0.32 mM. Also, the “% of inhibition” value on delta-5-desaturase (n-propyl gallate 0.02 mM, activity without inhibitor 394 pmol/mg microsomal protein/min) stood at 62.9%; on delta-5-desaturase (n-propyl gallate 0.04 mM), 74.9%; on delta-5-desaturase (n-propyl gallate 0.08 mM), 86.4%; at delta-5-desaturase (n-propyl gallate 0.16 mM), 88.7%; on delta-5-desaturase (n-propyl gallate 0.32 mM), 100.0%.

The values are drawn from US7256028B2, “Methods for screening compounds that modulate lipid metabolism” (Xenon Genetics Inc., priority 2000, dated 2007).
